US12421254B2, “KRAS modulators and uses thereof” (Quanta Therapeutics, Inc., priority 2023, dated 2025)
Like-named read-outs stand apart in the source and are kept apart here.

What was measured:
[1] = molecular target: GST-tagged KRAS-G12D (2-169) (Homo sapiens, UniProt P01116, G12D); assay: Nucleotide exchange assay (NEA), SOS-mediated, HTRF, KRAS G12D; assay type: biochemical; details: IC50 extracted at 30 min, 20 nM SOScat
Summary of the method: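 SOS1cat-driven loading of fluorescent GTP-DY-647P1 (150 nM) onto GST-KRAS-G12D (2-169, 0.25 nM) read by time-resolved FRET; SOScat 20 nM, compound preincubated with KRAS 1 h at RT. Signal blanked to no-SOS reactions, normalized to DMSO; IC50 fitted from the 30-min read.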

KRAS G12D/RAF1 = molecular target: T1, KRAS G12D/RAF1 (Homo sapiens, UniProt P01116, G12D); assay: Protein-protein interaction (PPI) HTRF assay KRAS G12D/RAF1; assay type: binding; details: Table 2
T1 construct: KRAS (1-169) proteins were expressed in BL21 (DE3)-CodonPlus E. coli; His6-MBP (N, cleaved yes)
Method: (§1) When RAS proteins are in the active GTP-bound conformation, they bind the effector protein RAF1 at the N-terminus Ras-binding domain (RBD, residues 52-131) (Tran, et al., 2021). Homogenous time resolved fluorescence (HTRF) was used to monitor the interaction between wt or mutant KRAS and RAF1 or wt NRAS and RAF1. Compounds were assayed in the presence of KRAS G12D/V and RAF1 versus wt KRAS to assess activity against mutant and w.t. KRAS. Similarly, compounds were then assayed in the presence of w.t. NRAS and RAF1 to assess RAS isoform selectivity. In all assay formats, His-tagged RAF1 protein was incubated with the HTRF donor, anti-6His Tb Cryptate gold (Cisbio 61DB10RDF), and biotinylated RAS proteins were incubated with the HTRF acceptor, streptavidin-d2 (CisBio 610SADLA). The intensity of the fluorescence signal emitted is proportional to binding between the two proteins. The donor solution was prepared by mixing 16 nM His-tagged RAF1 in protein dilution buffer with 1:100 anti-6His Tb cryptate in PPI-Terbium detection buffer. 16 nM biotinylated RAS protein was diluted into protein dilution buffer (50 mM Tris-HCl pH 7.5, 150 mM NaCl, 0.1 mM MgCl2, 1 mM TCEP, 0.005% Tween20) and mixed with 1:2000 Streptavidin-d2 diluted in PPI-Terbium detection buffer (CisBio 61DB10RDF). 50× compound in DMSO was mixed with 16 nM KRAS-acceptor solution and incubated for 30 minutes at room temperature. After compound pre-incubation with KRAS, the RAF1 donor solution was added to the KRAS-acceptor solution and incubated for 1 hour at room temperature. The fluorescence signal emitted was monitored at 665 nm and 615 nm using an Envision multimode plate reader. The HTRF ratio (665/615) was calculated and normalized to 0% inhibition in the absence of compound and 100% inhibition in the presence of untagged RAF1 protein. PPI KRAS G12D/RAF1, KRAS G12V/RAF1, w.t. KRAS/RAF1 and NRAS/RAF1 IC50 (uM) values of selected compounds are depicted in Table 3 and Table 4 with compounds having a value <0.1 uM as ++++; ≥0.1 uM to 1 uM as +++; ≥1 uM to 10 uM as ++; ≥10 uM to 100 uM as +; and ≥100 uM as NA.

phospho-ERK in AGS cells = assay: pERK In Cell Western (ICW) assay (Method B), AGS; assay type: cell-based; details: Homo sapiens, Table 2, 3 hours
Method: pERK ICW is a high throughput screening assay to evaluate the cellular potency of mutant KRAS small molecule inhibitors. KRAS mutant cell lines AGS, GP2D (KRAS-G12D) as well as SW620 (KRAS-G12V) were purchased from ATCC and maintained respectively in RPMI/DMEM/RPMI medium supplemented with 10% fetal bovine serum.
Cells grown in exponential phase were trypsinized, resuspended in fresh media, and viable cells were counted using a cell counter with Trypan Blue (BioRad TC20). Cells were seeded into 384-well plate (Greiner 781091) at density of 5,000 cells/well for AGS and 10,000 cells/well for GP2D/SW620 and allowed to grow overnight in a 37° C. CO2 incubator. The next day, compounds were dispensed into wells with a ½ log, 9-point serial dilution using a Tecan D300e dispenser and incubated for 3 hours in a 37° C. CO2 incubator. Cells were then fixed with paraformaldehyde (Electron Microscopy Sciences, 15710, 4% final concentration) for 30 min, permeabilized with wash buffer (1×PBS+0.1% Triton X-100) for 30 min and blocked with Odyssey blocking buffer (Li—COR 927-70001) for 1 hour, all at room temperature (RT). Phospho-ERK antibody (CST 4370L) was diluted 1:500 in Odyssey T20 (PBS) antibody diluent (Li—COR 927-75001) and incubated with cells overnight at 4° C. The next day, plates were washed 5× with wash buffer, incubated with IRDye 800 CW, Goat anti-Rabbit secondary antibody (Li—COR 926-32211, 1:800) and DRAQ5 (CST 4084L, 1:5,000) diluted in Odyssey T20 (PBS) antibody diluent for 1 hour, washed 5×, and imaged on an Odyssey CLx imaging system.
For data analysis, signal intensities from 800 (phosphor-ERK) and 700 (DRAQ5) channels were extracted, and phospho-ERK signals were normalized to DRAQ5 signals for each well and percent of blank control values were computed. Data were then imported into Graphpad Prism to compute half-maximal inhibitory concentrations (IC50) using a 4-parameter variable slope model. Z-factor for each plate was computed from signals derived from wells treated with either DMSO or 5 μM of control compound. AGS pERK ICW (Method B) IC50 (uM) values of selected compounds are depicted in Table 2 with compounds having a value ≥0.001 uM to 0.01 uM as ++++; ≥0.01 uM to 0.1 uM as +++; ≥0.1 uM to 1 uM as ++; ≥1 uM to 10 uM as + and ≥10 uM as NA.

NRAS/RAF1 = molecular target: T2, NRAS/RAF1 (Homo sapiens, UniProt P01111); assay: Protein-protein interaction (PPI) HTRF assay w.t. NRAS/RAF1; assay type: binding; details: Table 3; wt NRAS/RAF1
T2 construct: (1-169); His6-SUMO (N, cleaved yes)
Method: as §1

[2] = test system: phospho-ERK in GP2D (KRAS-G12D) cells; assay: pERK In Cell Western (ICW) assay (Method B), GP2D; assay type: cell-based; details: GP2d, 3 h, Table 4
Summary of the method: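 Read-out is In-Cell Western phospho-ERK signal divided by DRAQ5 per well, as percent of blank control, fitted with a 4-parameter variable-slope model for IC50. Compounds were dosed as 9-point half-log series for 3 h at 37°C on AGS, GP2D (G12D) or SW620 (G12V) cells plated the day before.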

w.t. KRAS/RAF1 = molecular target: T3, w.t. KRAS/RAF1 (Homo sapiens, UniProt P01116); assay: Protein-protein interaction (PPI) HTRF assay w.t. KRAS/RAF1; assay type: binding; details: Table 3; wt KRAS/RAF1
T3 construct: KRAS (1-169) proteins were expressed in BL21 (DE3)-CodonPlus E. coli; His6-MBP (N, cleaved yes)
Method: as §1

KRAS G12V/RAF1 = molecular target: T4, KRAS G12V/RAF1 (Homo sapiens, UniProt P01116, G12V); assay: Protein-protein interaction (PPI) HTRF assay KRAS G12V/RAF1; assay type: binding; details: Table 3
T4 construct: KRAS (1-169) proteins were expressed in BL21 (DE3)-CodonPlus E. coli; His6-MBP (N, cleaved yes)
Method: as §1

[3] = molecular target: GST-tagged KRAS-G12V (2-169) (Homo sapiens, UniProt P01116, G12V); assay: Nucleotide exchange assay (NEA), SOS-mediated, HTRF, KRAS G12V; assay type: biochemical; details: Table 4; IC50 extracted at 90 min; 80 nM SOS
Summary of the method: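 Exchange onto fluorescent GTP-DY-647P1 (150 nM final) catalysed by 80 nM SOS1cat was followed by Tb-anti-GST HTRF at RT for up to 90 min, after 1 h compound pre-incubation with 0.25 nM GST-tagged KRAS-G12V (2-169), pH 7.3. DMSO = 0%, no-SOS blank = 100%; 4-parameter IC50 taken at 90 min.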

[4] = Table 2, read-out: NEA-G12D (uM) IC50
[5] = Table 4, read-out: NEA G12D IC50

Chain of GST-tagged KRAS-G12D (2-169) (P01116 2-169 isoform P01116-2 G12D): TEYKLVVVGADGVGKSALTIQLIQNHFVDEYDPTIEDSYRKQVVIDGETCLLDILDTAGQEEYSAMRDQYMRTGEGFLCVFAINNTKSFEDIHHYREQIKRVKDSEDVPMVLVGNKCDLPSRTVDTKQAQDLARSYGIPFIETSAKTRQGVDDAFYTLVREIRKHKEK
T1 sequence (P01116 with tags, fused parts or gaps isoform P01116-2 G12D): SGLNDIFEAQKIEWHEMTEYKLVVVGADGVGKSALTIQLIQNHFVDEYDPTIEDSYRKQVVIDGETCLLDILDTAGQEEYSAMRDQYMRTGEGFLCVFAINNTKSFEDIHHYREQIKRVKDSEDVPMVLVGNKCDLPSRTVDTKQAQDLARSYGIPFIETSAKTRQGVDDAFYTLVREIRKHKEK
Chain of GST-tagged KRAS-G12V (2-169) (P01116 2-169 isoform P01116-2 G12V): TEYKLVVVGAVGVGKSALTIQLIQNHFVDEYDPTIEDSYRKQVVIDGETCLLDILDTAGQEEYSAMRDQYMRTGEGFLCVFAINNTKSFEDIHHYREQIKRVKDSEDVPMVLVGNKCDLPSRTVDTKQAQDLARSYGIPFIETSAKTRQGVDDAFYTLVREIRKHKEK
T3 sequence (P01116 with tags, fused parts or gaps isoform P01116-2): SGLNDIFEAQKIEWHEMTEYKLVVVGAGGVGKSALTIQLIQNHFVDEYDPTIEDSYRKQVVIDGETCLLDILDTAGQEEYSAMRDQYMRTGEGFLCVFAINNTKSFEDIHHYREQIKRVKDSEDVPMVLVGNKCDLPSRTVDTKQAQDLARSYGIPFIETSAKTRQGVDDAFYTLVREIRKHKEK
T4 sequence (P01116 with tags, fused parts or gaps isoform P01116-2 G12V): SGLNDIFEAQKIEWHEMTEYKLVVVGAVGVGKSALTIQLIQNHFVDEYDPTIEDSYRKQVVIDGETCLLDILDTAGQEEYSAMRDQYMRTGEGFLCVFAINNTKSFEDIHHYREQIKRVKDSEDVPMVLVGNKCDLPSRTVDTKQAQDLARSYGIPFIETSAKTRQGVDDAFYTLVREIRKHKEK
T2 sequence (P01111 with tags, fused parts or gaps): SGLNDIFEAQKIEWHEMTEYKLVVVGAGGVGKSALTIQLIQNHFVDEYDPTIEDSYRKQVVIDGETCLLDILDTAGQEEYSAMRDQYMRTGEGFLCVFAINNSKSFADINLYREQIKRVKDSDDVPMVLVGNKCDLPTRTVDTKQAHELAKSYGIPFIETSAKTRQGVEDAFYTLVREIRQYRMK

| Structure (SMILES) | IC50 [1, 4] [µM] | IC50 (KRAS G12D/RAF1) [µM] | IC50 (phospho-ERK in AGS cells) [µM] | IC50 (NRAS/RAF1) [µM] | IC50 [1, 5] [µM] | IC50 [2] [µM] | IC50 (w.t. KRAS/RAF1) [µM] | IC50 (KRAS G12V/RAF1) [µM] | IC50 [3] [µM] |
| --- | --- | --- | --- | --- | --- | --- | --- | --- | --- |
| N#Cc1c(N)sc(Cl)c1C1CCN(c2nc(OCC3(CN4CCOCC4)CC3)nc(N3C[C@H]4CC[C@@H](C3)N4)n2)C1 (stereo partly drawn) [Compound 4, 2-amino-5-chloro-4-[1-[4-[[1-(morpholinomethyl)cyclopropyl]methoxy]-6-[(1R,5S)-3,8-diazabicyclo[3.2.1]octan-3-yl]-1,3,5-triazin-2-yl]pyrrolidin-3-yl]thiophene-3-carbonitrile] | < 0.01 | 1 to 10 | 1 to 10 | > 100 |  |  |  |  |  |
| CC1(C#N)CCCN(c2nc(OC[C@@]34CCCN3C[C@H](F)C4)nc(N3CC4(CCc5sc(N)c(C#N)c54)C3)n2)C1 (stereo partly drawn) [Compound 19, 2-amino-1′-[4-(3-cyano-3-methyl-1-piperidyl)-6-[[(2R,8S)-2-fluoro-1,2,3,5,6,7-hexahydropyrrolizin-8-yl]methoxy]-1,3,5-triazin-2-yl]spiro[5,6-dihydrocyclopenta[b]thiophene-4,3′-azetidine]-3-carbonitrile] | 0.01 to 0.1 | 1 to 10 | 0.1 to 1 |  | 0.01 to 0.1 | 0.1 to 1 | 1 to 10 | 1 to 10 | 0.01 to 0.1 |
| CC1(CO)CCCN(c2nc(OC[C@@]34CCCN3C[C@H](F)C4)nc(N3CC4(CCc5sc(N)c(C#N)c54)C3)n2)C1 (stereo partly drawn) [Compound 18, 2-amino-1′-[4-[[(2R)-2-fluoro-1,2,3,5,6,7-hexahydropyrrolizin-8-yl]methoxy]-6-[3-(hydroxymethyl)-3-methyl-1-piperidyl]-1,3,5-triazin-2-yl]spiro[5,6-dihydrocyclopenta[b]thiophene-4,3′-azetidine]-3-carbonitrile] | 0.01 to 0.1 | 1 to 10 | 1 to 10 |  | 0.01 to 0.1 | 1 to 20 | 1 to 10 | 1 to 10 | 0.01 to 0.1 |
| CN(C)C(=O)c1nn2c(c1Cl)CN(c1nc(OC[C@@]34CCCN3C[C@H](F)C4)nc(N3CC4(CCc5sc(N)c(C#N)c54)C3)n1)CCC2 [Compound 5, 5-[4-(2-amino-3-cyano-spiro[5,6-dihydrocyclopenta[b]thiophene-4,3′-azetidine]-1′-yl)-6-[[(2R,8S)-2-fluoro-1,2,3,5,6,7-hexahydropyrrolizin-8-yl]methoxy]-1,3,5-triazin-2-yl]-3-chloro-N,N-dimethyl-4,6,7,8-tetrahydropyrazolo[1,5-a][1,4]diazepine-2-carboxamide] | < 0.01 | 10 to 100 | 0.1 to 1 | > 100 |  |  |  |  |  |
